What was measured:
Type in all cases: in vivo
[1] = test system: barnyardgrass (Echinochloa crus-galli); experiment: Test A preemergence soil spray, visual injury rating 0-100; conditions: 10 days, 0 = no effect, 100 = complete control
Outline: (§1)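 Seeds sown in loam-sand blend got a preemergence directed soil spray, or emerged plants (2-10 cm, one- to two-leaf) got a postemergence spray, of compound in non-phytotoxic solvent with surfactant. After 10 days in greenhouse, injury rated visually versus untreated controls on a 0 (no effect) to 100 (complete control) scale.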

[2] = test system: blackgrass (Alopecurus myosuroides); experiment: as above; conditions: 10 days, 0 = no effect, 100 = complete control
Outline: as §1

[3] = test system: green foxtail (Setaria viridis); experiment: as above; conditions: 10 days, 0 = no effect, 100 = complete control
Outline: as §1

[4] = test system: kochia (Bassia scoparia); experiment: as above; conditions: 10 days, 0 = no effect, 100 = complete control
Outline: as §1

[5] = test system: palmer (palmer amaranth, palmer pigweed, Amaranthus palmeri); experiment: as above; conditions: 10 days, 0 = no effect, 100 = complete control
Outline: as §1

[6] = test system: ragweed (common ragweed, Ambrosia artemisiifolia); experiment: as above; conditions: 1000 g ai/ha, 10 days, 0 = no effect, 100 = complete control
Outline: as §1

[7] = test system: ryegrass, Italian (italian ryegrass, Lolium multiflorum); experiment: as above; conditions: 10 days, 0 = no effect, 100 = complete control
Outline: as §1

[8] = test system: barnyardgrass (Echinochloa crus-galli); experiment: Test A postemergence application, visual injury rating 0-100; conditions: Postemergence, 10 days; for Barnyardgrass plant response rating (0 to 100 scale): 0 is no effect, 100 is complete control
Outline: as §1

[9] = test system: blackgrass (Alopecurus myosuroides); experiment: as above; conditions: Postemergence, 10 days; for Blackgrass plant response rating (0 to 100 scale): 0 is no effect, 100 is complete control
Outline: as §1

[10] = test system: galium (catchweed bedstraw, Galium aparine); experiment: as above; conditions: Postemergence, 10 days; for Galium plant response rating (0 to 100 scale): 0 is no effect, 100 is complete control
Outline: as §1

[11] = test system: green foxtail (Setaria viridis); experiment: as above; conditions: Postemergence, 10 days; for Foxtail, Green plant response rating (0 to 100 scale): 0 is no effect, 100 is complete control
Outline: as §1

[12] = test system: horseweed (Erigeron canadensis); experiment: as above; conditions: Postemergence, 10 days; for Horseweed plant response rating (0 to 100 scale): 0 is no effect, 100 is complete control
Outline: as §1

[13] = test system: kochia (Bassia scoparia); experiment: as above; conditions: Postemergence, 10 days; for Kochia plant response rating (0 to 100 scale): 0 is no effect, 100 is complete control
Outline: as §1

[14] = test system: barnyardgrass (Echinochloa crusgalli); experiment: Test B flooded paddy test, visual plant response rating 0-100; conditions: 250 g ai/ha, Flood, applied to paddy water, evaluated after 13 days
Outline: (§2)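 Plants were grown to the 2-leaf stage, then pots were flooded to 3 cm above the soil and test compounds were applied directly into the paddy water. Water depth was held there throughout; after 13 days in a greenhouse, injury was scored visually against untreated controls.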

[15] = test system: ducksalad (Heteranthera limosa); experiment: as above; conditions: 250 g ai/ha, Flood, applied to paddy water, evaluated after 13 days
Outline: as §2

[16] = test system: rice (Oryza sativa); experiment: as above; conditions: 250 g ai/ha, Flood, applied to paddy water, evaluated after 13 days
Outline: as §2

[17] = test system: sedge, umbrella (small-flower umbrella sedge, Cyperus difformis); experiment: as above; conditions: 250 g ai/ha, Flood, applied to paddy water, evaluated after 13 days
Outline: as §2

[18] = test system: corn (Zea mays); experiment: Test A preemergence soil spray, visual injury rating 0-100; conditions: 10 days, 0 = no effect, 100 = complete control
Outline: as §1

[19] = test system: oat, wild (wild oat, Avena fatua); experiment: as above; conditions: 10 days, 0 = no effect, 100 = complete control
Outline: as §1

[20] = test system: soybean (Glycine max); experiment: as above; conditions: 10 days, 0 = no effect, 100 = complete control
Outline: as §1

[21] = test system: wheat (Triticum aestivum); experiment: as above; conditions: 10 days, 0 = no effect, 100 = complete control
Outline: as §1

[22] = test system: corn (Zea mays); experiment: Test A postemergence application, visual injury rating 0-100; conditions: Postemergence, 10 days, 0 is no effect, 100 is complete control
Outline: as §1

[23] = test system: oat, wild (wild oat, Avena fatua); experiment: as above; conditions: Postemergence, 10 days, 0 is no effect, 100 is complete control
Outline: as §1

[24] = test system: palmer (palmer amaranth, palmer pigweed, Amaranthus palmeri); experiment: as above; conditions: Postemergence, 10 days, 0 is no effect, 100 is complete control
Outline: as §1

[25] = test system: ragweed (common ragweed, Ambrosia artemisiifolia); experiment: as above; conditions: Postemergence, 10 days, 0 is no effect, 100 is complete control
Outline: as §1

[26] = test system: ryegrass, Italian (italian ryegrass, Lolium multiflorum); experiment: as above; conditions: Postemergence, 10 days, 0 is no effect, 100 is complete control
Outline: as §1

[27] = test system: soybean (Glycine max); experiment: as above; conditions: Postemergence, 10 days, 0 is no effect, 100 is complete control
Outline: as §1

[28] = test system: wheat (Triticum aestivum); experiment: as above; conditions: Postemergence, 10 days, 0 is no effect, 100 is complete control
Outline: as §1

COC(=O)C1=CCC(NC(=O)C2(C)CN(c3cc(F)cc(F)c3)C(=O)N2)C1 (mixture of isomers) [Compound 181]
Barnyardgrass plant response rating (0 to 100 scale) ([1]; 1000 g ai/ha): 80 | Blackgrass plant response rating (0 to 100 scale) ([2]; 1000 g ai/ha): 80 | Foxtail, Green plant response rating (0 to 100 scale) ([3]; 1000 g ai/ha): 90 | Kochia plant response rating (0 to 100 scale) ([4]; 1000 g ai/ha): 90 | Amaranth, Palmer / Pigweed, Palmer plant response rating (0 to 100 scale) ([5]; 1000 g ai/ha): 90 | Ragweed plant response rating (0 to 100 scale) [6]: 0 | Ryegrass, Italian plant response rating (0 to 100 scale) ([7]; 1000 g ai/ha): 0 | Barnyardgrass plant response rating ([8]; 1000 g ai/ha, 0 to 100 scale): 90 | Blackgrass plant response rating ([9]; 1000 g ai/ha, 0 to 100 scale): 90 | Galium plant response rating ([10]; 1000 g ai/ha, 0 to 100 scale): 90 | Foxtail, Green plant response rating ([11]; 1000 g ai/ha, 0 to 100 scale): 90 | Horseweed plant response rating ([12]; 1000 g ai/ha, 0 to 100 scale): 10 | Kochia plant response rating ([13]; 1000 g ai/ha, 0 to 100 scale): 80 | Plant response rating, Barnyardgrass (0 to 100 scale, 0 is no effect and 100 is complete control) [14]: 10 | Plant response rating, Ducksalad (0 to 100 scale, 0 is no effect and 100 is complete control) [15]: 30 | Plant response rating, Rice (0 to 100 scale, 0 is no effect and 100 is complete control) [16]: 15 | Plant response rating, Sedge, Umbrella (0 to 100 scale, 0 is no effect and 100 is complete control) [17]: 0

CCCOC(=O)C1C=CC(NC(=O)C2(C)CN(c3cc(F)cc(F)c3)C(=O)O2)C1 (stereo not shown) [Compound 34]
Barnyardgrass plant response rating (0 to 100 scale) ([1]; 125 g ai/ha): 100 | Barnyardgrass plant response rating (0 to 100 scale) ([1]; 500 g ai/ha): 100 | Blackgrass plant response rating (0 to 100 scale) ([2]; 125 g ai/ha): 90 | Blackgrass plant response rating (0 to 100 scale) ([2]; 500 g ai/ha): 100 | Corn plant response rating (0 to 100 scale) ([18]; 125 g ai/ha): 90 | Corn plant response rating (0 to 100 scale) ([18]; 500 g ai/ha): 100 | Foxtail, Green plant response rating (0 to 100 scale) ([3]; 125 g ai/ha): 100 | Foxtail, Green plant response rating (0 to 100 scale) ([3]; 500 g ai/ha): 100 | Kochia plant response rating (0 to 100 scale) ([4]; 125 g ai/ha): 90 | Kochia plant response rating (0 to 100 scale) ([4]; 500 g ai/ha): 90 | Oat, Wild plant response rating (0 to 100 scale) ([19]; 125 g ai/ha): 90 | Oat, Wild plant response rating (0 to 100 scale) ([19]; 500 g ai/ha): 90 | Amaranth, Palmer plant response rating (0 to 100 scale) ([5]; 125 g ai/ha): 90 | Amaranth, Palmer plant response rating (0 to 100 scale) ([5]; 500 g ai/ha): 100 | Ryegrass, Italian plant response rating (0 to 100 scale) ([7]; 125 g ai/ha): 100 | Ryegrass, Italian plant response rating (0 to 100 scale) ([7]; 500 g ai/ha): 100 | Soybean plant response rating (0 to 100 scale) ([20]; 125 g ai/ha): 70 | Soybean plant response rating (0 to 100 scale) ([20]; 500 g ai/ha): 80 | Wheat plant response rating (0 to 100 scale) ([21]; 125 g ai/ha): 90 | Wheat plant response rating (0 to 100 scale) ([21]; 500 g ai/ha): 100 | Barnyardgrass plant response rating (0 to 100 scale) ([8]; 125 g ai/ha): 100 | Barnyardgrass plant response rating (0 to 100 scale) ([8]; 500 g ai/ha): 100 | Blackgrass plant response rating (0 to 100 scale) ([9]; 125 g ai/ha): 90 | Blackgrass plant response rating (0 to 100 scale) ([9]; 500 g ai/ha): 100 | Corn plant response rating (0 to 100 scale) ([22]; 125 g ai/ha): 100 | Corn plant response rating (0 to 100 scale) ([22]; 500 g ai/ha): 100 | Galium plant response rating (0 to 100 scale) ([10]; 125 g ai/ha): 80 | Galium plant response rating (0 to 100 scale) ([10]; 500 g ai/ha): 80 | Foxtail, Green plant response rating (0 to 100 scale) ([11]; 125 g ai/ha): 90 | Foxtail, Green plant response rating (0 to 100 scale) ([11]; 500 g ai/ha): 90 | Horseweed plant response rating (0 to 100 scale) ([12]; 125 g ai/ha): 90 | Horseweed plant response rating (0 to 100 scale) ([12]; 500 g ai/ha): 90 | Kochia plant response rating (0 to 100 scale) ([13]; 125 g ai/ha): 70 | Kochia plant response rating (0 to 100 scale) ([13]; 500 g ai/ha): 70 | Oat, Wild plant response rating (0 to 100 scale) ([23]; 125 g ai/ha): 100 | Oat, Wild plant response rating (0 to 100 scale) ([23]; 500 g ai/ha): 100 | Amaranth, Palmer / Pigweed, Palmer plant response rating (0 to 100 scale) ([24]; 125 g ai/ha): 80 | Amaranth, Palmer / Pigweed, Palmer plant response rating (0 to 100 scale) ([24]; 500 g ai/ha): 100 | Ragweed plant response rating (0 to 100 scale) ([25]; 125 g ai/ha): 70 | Ragweed plant response rating (0 to 100 scale) ([25]; 500 g ai/ha): 80 | Ryegrass, Italian plant response rating (0 to 100 scale) ([26]; 125 g ai/ha): 80 | Ryegrass, Italian plant response rating (0 to 100 scale) ([26]; 500 g ai/ha): 90 | Soybean plant response rating (0 to 100 scale) ([27]; 125 g ai/ha): 70 | Soybean plant response rating (0 to 100 scale) ([27]; 500 g ai/ha): 80 | Wheat plant response rating (0 to 100 scale) ([28]; 125 g ai/ha): 70 | Wheat plant response rating (0 to 100 scale) ([28]; 500 g ai/ha): 80 | Plant response rating, Barnyardgrass (0 to 100 scale, 0 is no effect and 100 is complete control) [14]: 90 | Plant response rating, Ducksalad (0 to 100 scale, 0 is no effect and 100 is complete control) [15]: 75 | Plant response rating, Rice (0 to 100 scale, 0 is no effect and 100 is complete control) [16]: 10 | Plant response rating, Sedge, Umbrella (0 to 100 scale, 0 is no effect and 100 is complete control) [17]: 75

Reference: patent publication US20260285850A1, “SUBSTITUTED OXAZOLIDINONES AND IMIDAZOLINONES AS HERBICIDES” (FMC CORPORATION, priority 2023, published 2026)
